Results as given in US9278922B2 (ABBVIE INC., priority 2009, dated 2016).

The compounds below were run on HCV 1b-Con-1 replicon (assay: HCV 1b-Con-1 replicon assay (luciferase reporter gene, HuH-7 cells)). Conditions: Hepatitis C virus, Huh-7, luciferase reporter gene activity in the replicon, in the presence of 5% FBS.
Assay type: cell-based, Hepatitis C virus (HCV) genotype 1b-Con1

Row | SMILES | EC50 [nM]
1 | C=CC[C@H]1CC[C@@H](C(=O)Nc2ccc(CN(Cc3ccc(NC(=O)[C@@H]4CC[C@H](CC=C)N4C(=O)[C@@H](NC(=O)OC)C(C)(C)C)cc3)c3ccccc3)cc2)N1C(=O)[C@@H](NC(=O)OC)C(C)(C)C [Example 64] | < 1
2 | COC(=O)N[C@H](C(=O)N1CCC[C@H]1c1nc2ccc(CN(Cc3ccc4nc([C@@H]5CCCN5C(=O)[C@@H](NC(=O)OC)[C@@H](C)O)[nH]c4c3)c3ccccc3)cc2[nH]1)[C@@H](C)O [Example 35, methyl [(1S,2R)-2-hydroxy-1-{[(2S)-2-(6-{[({2-[(2S)-1-{(2S,3R)-3-hydroxy-2-[(methoxycarbonyl)amino]butanoyl}pyrrolidin-2-yl]-1H-benzimidazol-6-yl}methyl)(phenyl)amino]methyl}-1H-benzimidazol-2-yl)pyrrolidin-1-yl]carbonyl}propyl]carbamate] | < 1
3 | O=C(Nc1ccc(CN(Cc2ccc(NC(=O)[C@@H]3C[C@H](O)CN3C(=O)[C@@H](c3ccccc3)N3CCCCC3)cc2)c2ccc(F)cc2)cc1)[C@@H]1C[C@H](O)CN1C(=O)[C@@H](c1ccccc1)N1CCCCC1 [Example 127, (2S,4S,2′S,4′S)-N,N′-{[(4-fluorophenyl)imino]bis(methanediylbenzene-4,1-diyl)}bis{4-hydroxy-1-[(2R)-2-phenyl-2-piperidin-1-ylacetyl]pyrrolidine-2-carboxamide}] | < 1
4 | CC[C@H](NC(=O)OC)C(=O)N1CCC[C@H]1C(=O)Nc1ccc(CN(Cc2ccc(NC(=O)[C@@H]3CCCN3C(=O)[C@H](CC)NC(=O)OC)cc2)c2ccccc2)cc1 [Example 38, dimethyl [(phenylimino)bis{methanediylbenzene-4,1-diylcarbamoyl(2S)pyrrolidine-2,1-diyl[(2S)-1-oxobutane-1,2-diyl]}]biscarbamate] | 1 to 10
5 | COC(=O)N[C@H](C(=O)N1C[C@@H](O)C[C@H]1C(=O)Nc1ccc(CN(Cc2ccc(NC(=O)[C@@H]3C[C@H](O)CN3C(=O)[C@@H](NC(=O)OC)C(C)(C)C)cc2)c2ccc(F)cc2)cc1)C(C)(C)C [Example 136] | < 1
6 | COC(=O)N[C@H](C(=O)N1CCC[C@H]1C(=O)Nc1ccc(CN(Cc2ccc(NC(=O)[C@@H]3CCCN3C(=O)[C@@H](NC(=O)OC)[C@@H](C)O)cc2)[C@@H]2CCOC2)cc1)[C@@H](C)O [Example 97, dimethyl ([(3R)-tetrahydrofuran-3-ylimino]bis{methanediylbenzene-4,1-diylcarbamoyl(2S)pyrrolidine-2,1-diyl[(2S,3R)-3-hydroxy-1-oxobutane-1,2-diyl]})biscarbamate] | 100 to 250
7 | COC(=O)N[C@@H](CC(C)C)C(=O)N1CCC[C@H]1C(=O)Nc1ccc(CN(Cc2ccc(NC(=O)[C@@H]3CCCN3C(=O)[C@H](CC(C)C)NC(=O)OC)cc2)c2ccccc2)cc1 [Example 45, dimethyl [(phenylimino)bis{methanediylbenzene-4,1-diylcarbamoyl(2S)pyrrolidine-2,1-diyl[(2S)-4-methyl-1-oxopentane-1,2-diyl]}]biscarbamate] | 1 to 10
8 | CC[C@H](C)[C@H](NC(=O)OC(C)(C)C)C(=O)N1CCC[C@H]1C(=O)Nc1ccc(CN(Cc2ccc(NC(=O)[C@@H]3CCCN3C(=O)[C@@H](NC(=O)OC(C)(C)C)[C@@H](C)CC)cc2)c2ccccc2)cc1 [Example 41, di-tert-butyl[(phenylimino)bis{methanediylbenzene-4,1-diylcarbamoyl(2S)pyrrolidine-2,1-diyl[(2S,3S)-3-methyl-1-oxopentane-1,2-diyl]}]biscarbamate] | 10 to 100
9 | COCC(=O)N[C@H](C(=O)N1CCC[C@H]1C(=O)Nc1ccc(CN(Cc2ccc(NC(=O)[C@@H]3CCCN3C(=O)[C@@H](NC(=O)COC)C(C)(C)C)cc2)c2ccccc2)cc1)C(C)(C)C [Example 40, (2S,2′S)-N,N′-[(phenylimino)bis(methanediylbenzene-4,1-diyl)]bis(1-{(2S)-2-[(methoxyacetyl)amino]-3,3-dimethylbutanoyl}pyrrolidine-2-carboxamide)] | 10 to 100
10 | O=C(Nc1ccc(CN(Cc2ccc(NC(=O)[C@@H]3CCCN3C(=O)OCc3ccccc3)cc2)c2ccccc2)cc1)C1CCCN1C(=O)OCc1ccccc1 (stereo partly drawn) [Example 4, (2S,2′S)-benzyl 2,2′-(4,4′-(phenylazanediyl)bis(methylene)bis(4,1-phenylene)bis(azanediyl))bis(oxomethylene)dipyrrolidine-1-carboxylate] | 10 to 100
11 | CC(C)C(C(=O)N1CCC[C@H]1C(=O)Nc1ccc(CN(Cc2ccc(NC(=O)[C@@H]3CCCN3C(=O)C(c3ccccc3)C(C)C)cc2)c2ccc(F)cc2)cc1)c1ccccc1 (stereo partly drawn) [Example 108, (2S,2′S)-N,N′-{[(4-fluorophenyl)imino]bis(methanediylbenzene-4,1-diyl)}bis[1-(3-methyl-2-phenylbutanoyl)pyrrolidine-2-carboxamide]] | 1 to 10
12 | O=C(Nc1ccc(CN(Cc2ccc(NC(=O)[C@@H]3CCCN3C(=O)[C@@H](c3ccccc3)N3CCCCC3)cc2)c2ccc(F)cc2)cc1)[C@@H]1CCCN1C(=O)[C@@H](c1ccccc1)N1CCCCC1 [Example 92, (2S,2′S)-N,N′-{[(4-fluorophenyl)imino]bis(methanediylbenzene-4,1-diyl)}bis{1-[(2R)-2-phenyl-2-piperidin-1-ylacetyl]pyrrolidine-2-carboxamide}] | < 1
13 | CCN(CC)[C@@H](C(=O)N1CCC[C@H]1C(=O)Nc1ccc(CN(Cc2ccc(NC(=O)[C@@H]3CCCN3C(=O)[C@@H](NC(=O)OC)C(C)(C)C)cc2)c2ccc(F)cc2)cc1)c1ccccc1 [Example 82, N-(methoxycarbonyl)-3-methyl-L-valyl-N-[4-({[4-({1-[(2R)-2-(diethylamino)-2-phenylacetyl]-L-prolyl}amino)benzyl](4-fluorophenyl)amino}methyl)phenyl]-L-prolinamide] | < 1
14 | COC(=O)N[C@H](C(=O)N1CCC[C@H]1C(=O)Nc1ccc(CN(Cc2ccc(NC(=O)[C@@H]3CCCN3C(=O)[C@@H](NC(=O)OC)[C@@H](C)O)cc2)c2ccccc2)cc1)[C@@H](C)O [Example 25, dimethyl[(phenylimino)bis{methanediylbenzene-4,1-diylcarbamoyl(2S)pyrrolidine-2,1-diyl[(2S,3R)-3-hydroxy-1-oxobutane-1,2-diyl]}]biscarbamate] | 1 to 10
15 | COC(=O)N[C@H](C(=O)N1CCC[C@H]1C(=O)Nc1ccc(CN(Cc2ccc(NC(=O)[C@@H]3CCCN3C(=O)[C@@H](NC(=O)OC)C(C)C)cc2)c2ccc(F)cc2)cc1)C(C)C [Example 14] | < 1
16 | CC(C)(C)[C@@H](C(=O)N1CCC[C@H]1C(=O)Nc1ccc(CN(Cc2ccc(NC(=O)[C@@H]3CCCN3C(=O)[C@@H](N3CCNC3=O)C(C)(C)C)cc2)c2ccccc2)cc1)N1CCNC1=O [Example 31, (2S,2′S)-N,N′-[(phenylimino)bis(methanediylbenzene-4,1-diyl)]bis{1-[(2S)-3,3-dimethyl-2-(2-oxoimidazolidin-1-yl)butanoyl]pyrrolidine-2-carboxamide}] | < 1
17 | O=C(Nc1ccc(CN(Cc2ccc(NC(=O)[C@@H]3C[C@@H](F)CN3C(=O)[C@@H](c3ccccc3)N3CCCCC3)cc2)c2ccc(F)cc2)cc1)[C@@H]1C[C@@H](F)CN1C(=O)[C@@H](c1ccccc1)N1CCCCC1 [Example 102, (2S,4R,2′S,4′R)-N,N′-{[(4-fluorophenyl)imino]bis(methanediylbenzene-4,1-diyl)}bis{4-fluoro-1-[(2R)-2-phenyl-2-piperidin-1-ylacetyl]pyrrolidine-2-carboxamide}] | < 1
18 | COC(=O)N[C@H](C(=O)N1CCC[C@H]1C(=O)Nc1ccc(CN(Cc2ccc(NC(=O)[C@@H]3CCCN3C(=O)[C@@H](NC(=O)OC)C(C)(C)O)cc2)c2ccc(F)cc2)cc1)C(C)(C)O [Example 98, dimethyl ([(4-fluorophenyl)imino]bis{methanediylbenzene-4,1-diylcarbamoyl(25)pyrrolidine-2,1-diyl[(2S)-3-hydroxy-3-methyl-1-oxobutane-1,2-diyl]})biscarbamate] | < 1
19 | COC(=O)N[C@H](C(=O)N1CCC[C@H]1C(=O)Nc1ccc(CN(Cc2ccc(NC(=O)[C@@H]3CCCN3C(=O)[C@@H](NC(=O)OC)C(C)C)cc2)C2CCCC2)cc1)C(C)C [Example 27, dimethyl[(cyclopentylimino)bis{methanediylbenzene-4,1-diylcarbamoyl(2S)pyrrolidine-2,1-diyl[(2S)-3-methyl-1-oxobutane-1,2-diyl]}]biscarbamate] | 10 to 100
20 | COC(=O)N[C@H](C(=O)N1CCC[C@H]1C(=O)Nc1ccc(CN(Cc2ccc(NC(=O)[C@@H]3CCCN3C(=O)[C@@H](c3ccccc3)N3CCCC3)cc2)c2ccccc2)cc1)C(C)(C)C [Example 56, N-(methoxycarbonyl)-3-methyl-L-valyl-N-[4-({phenyl[4-({1-[(2R)-2-phenyl-2-pyrrolidin-1-ylacetyl]-L-prolyl}amino)benzyl]amino}methyl)phenyl]-L-prolinamide] | < 1
21 | O=C(Nc1ccc(CN(Cc2ccc(NC(=O)[C@@H]3CCCN3C(=O)C(c3ccccc3)N3CC[C@@H](F)C3)cc2)c2ccc(F)cc2)cc1)[C@@H]1CCCN1C(=O)C(c1ccccc1)N1CC[C@@H](F)C1 (single isomer, unassigned) [Example 118] | 1 to 10
22 | COC(=O)N[C@H](C(=O)N1C(C)CC[C@H]1C(=O)Nc1ccc(CN(Cc2ccc(NC(=O)[C@@H]3CCC(C)N3C(=O)[C@H](NC(=O)OC)C(C)(C)C)cc2)c2ccc(F)cc2)cc1)C(C)(C)C (stereo partly drawn) [Example 142, methyl [(1R)-1-{[(2S)-2-{[4-({(4-fluorophenyl)[4-({[(2S)-1-{(2S)-2-[(methoxycarbonyl)amino]-3,3-dimethylbutanoyl}-5-methylpyrrolidin-2-yl]carbonyl}amino)benzyl]amino}methyl)phenyl]carbamoyl}-5-methylpyrrolidin-1-yl]carbonyl}-2,2-dimethylpropyl]carbamate] | < 1
23 | CCN(CC)[C@@H](C(=O)N1CCC[C@H]1C(=O)Nc1ccc(CN(Cc2ccc(NC(=O)[C@@H]3CCCN3C(=O)[C@@H](c3ccccc3)N(CC)CC)cc2)c2ccc(F)cc2)cc1)c1ccccc1 [Example 54, (2S,2′S)-N,N-{[(4-fluorophenyl)imino]bis(methanediylbenzene-4,1-diyl)}bis{1-[(2R)-2-(diethylamino)-2-phenylacetyl]pyrrolidine-2-carboxamide}] | < 1
